Experimental data as given in ChEMBL document CHEMBL5727727, “(Aza)pyridopyrazolopyrimidinones and indazolopyrimidinones and their use” (2020).

test: Plasma-Based Clot Lysis Assay: The clot-lysis test system configures the kinetics of clot formation and degradation in vitro and allows quantifying modulation of the process by selected test compounds.The test compounds were dissolved in 1% acetic acid and further complemented with an equal volume of DMSO. The resulting stock solutions were serially diluted in 0.5% acetic acid/50% DMSO. 1 μL aliquots of these solutions were placed into 384 well microplates (Greiner, black, transparent bottom), followed by 30 μL of diluted human citrated plasma (platelet-poor, final concentration: 5%; supplemented with fibrinogen, final concentration: 3 μM; dilution buffer: 20 mM HEPES, 150 mM NaCl, 0.01% Brij (pH 7)). The reactions were started by addition of 20 μL of CaCl2 (final concentration: 10 mM), and tPA (tissue plasminogen activator, final concentration: 0.2 nM) in dilution buffer, followed by an additional volume of 20 μL dilution buffer for improved mixing. The reactions were incubated at 37° C. Clot formation and degradation was monitored spectrophotometrically by kinetic optical density measurements at 405 nm. IC50 values were determined by comparing the resulting time courses with the time course of a blank control reaction.

IC50	SMILES
35 nM	Nc1cccc2nn3c(C4CCNCC4)cc(=O)[nH]c3c12
21 nM	O=c1cc(C2CCNCC2)n2nc3cc(F)cnc3c2[nH]1
100 nM	O=c1cc(C2CCNCC2)n2nc3cncc(Br)c3c2[nH]1
